According to ChEMBL document CHEMBL1201862, “PubChem BioAssay data set” (2004):
The source made the active and inactive calls.

Columns and labels:
Hexokinase-1 = Hexokinase-1 (Homo sapiens, UniProt P19367); experiment: SAR analysis of small molecule inhibitors of hexokinase domain containing I (HKDC1) in the hexokinase 1 selectivity assay. [Related pubchem assays (depositor defined):AID493160, AID493190]; type: functional
Hexokinase HKDC1 = target: T1, Hexokinase HKDC1 (Homo sapiens, UniProt Q2TB90); experiment: SAR analysis of small molecule inhibitors of hexokinase domain containing I (HKDC1). [Related pubchem assays (depositor defined):AID493160, AID493190]; type: functional
T1 sequence (Q2TB90 whole entry): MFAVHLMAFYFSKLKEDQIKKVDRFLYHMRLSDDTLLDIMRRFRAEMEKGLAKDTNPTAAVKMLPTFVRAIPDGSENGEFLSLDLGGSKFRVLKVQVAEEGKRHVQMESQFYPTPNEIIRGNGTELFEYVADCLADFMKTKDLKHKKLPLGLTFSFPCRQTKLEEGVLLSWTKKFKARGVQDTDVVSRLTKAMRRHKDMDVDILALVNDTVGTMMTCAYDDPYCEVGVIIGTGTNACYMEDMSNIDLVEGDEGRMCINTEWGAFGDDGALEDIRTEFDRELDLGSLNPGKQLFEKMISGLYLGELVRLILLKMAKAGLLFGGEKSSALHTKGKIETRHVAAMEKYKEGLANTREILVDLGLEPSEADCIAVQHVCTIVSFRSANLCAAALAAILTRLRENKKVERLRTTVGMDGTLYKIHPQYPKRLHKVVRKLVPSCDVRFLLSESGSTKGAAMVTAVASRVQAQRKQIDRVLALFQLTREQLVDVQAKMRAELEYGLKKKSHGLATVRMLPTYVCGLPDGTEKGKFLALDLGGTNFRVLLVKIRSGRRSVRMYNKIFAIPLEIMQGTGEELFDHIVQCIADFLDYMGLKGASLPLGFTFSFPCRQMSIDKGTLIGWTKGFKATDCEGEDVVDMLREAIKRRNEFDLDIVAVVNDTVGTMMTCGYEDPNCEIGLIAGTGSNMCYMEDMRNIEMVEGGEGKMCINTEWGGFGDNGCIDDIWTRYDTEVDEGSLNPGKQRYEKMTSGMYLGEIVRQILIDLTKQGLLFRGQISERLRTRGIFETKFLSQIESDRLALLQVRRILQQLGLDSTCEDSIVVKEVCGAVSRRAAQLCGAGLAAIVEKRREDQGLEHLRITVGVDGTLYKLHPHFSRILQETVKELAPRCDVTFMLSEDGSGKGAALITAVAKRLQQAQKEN

[1] = system: Streptococcus sp. 'group A'; experiment: growth inhibition of control SK(-) GAS strain, dose response, counter-screen for streptokinase expression inhibitor project, luminescence, kanamycin, BacTiterGlo, confirmation (AID 1900); type: functional, organism-based
[2] = Shn3 3'UTR reporter inhibitors, dose response, cell-based, Clone20 osteoblasts, firefly luciferase, cherry-picked (AID 624132); type: functional;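 further: firefly luciferase luminescence from reporter carrying the Shn3 3'UTR in osteoblasts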
cells [3] = type: functional, cell-based
BJ [4] = experiment: cytotoxicity toward BJ-TERT-LT-ST fibroblasts, dose response, cell-based, RAS-independent, luminescence (AID 1935); type: functional; details: Homo sapiens;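 further: BJ fibroblasts immortalized with TERT plus LT and ST oncogenes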
cells [5] = type: functional, cell-based; remark: listed apart in the source
BJ [6] = experiment: cytotoxicity toward BJ-TERT fibroblasts, dose response, cell-based, RAS-independent, luminescence (AID 1933); type: functional; details: Homo sapiens
[7] = control 3'UTR Renilla luciferase suppression, dose response, counter-screen for Shn3 inhibitor project, cell-based, Clone20-Shn3RL, cherry-picked (AID 624133); type: functional
Cytochrome P450 2C19 = Cytochrome P450 2C19 (Homo sapiens, UniProt P33261); experiment: Cytochrome panel assay with activity outcomes. Panel member name: p450-cyp2c19 Compounds with AC50 equal or less than 10 uM are considered active; type: functional; details: read-out: AC50
Chain of Cytochrome P450 2C19 (P33261 whole entry): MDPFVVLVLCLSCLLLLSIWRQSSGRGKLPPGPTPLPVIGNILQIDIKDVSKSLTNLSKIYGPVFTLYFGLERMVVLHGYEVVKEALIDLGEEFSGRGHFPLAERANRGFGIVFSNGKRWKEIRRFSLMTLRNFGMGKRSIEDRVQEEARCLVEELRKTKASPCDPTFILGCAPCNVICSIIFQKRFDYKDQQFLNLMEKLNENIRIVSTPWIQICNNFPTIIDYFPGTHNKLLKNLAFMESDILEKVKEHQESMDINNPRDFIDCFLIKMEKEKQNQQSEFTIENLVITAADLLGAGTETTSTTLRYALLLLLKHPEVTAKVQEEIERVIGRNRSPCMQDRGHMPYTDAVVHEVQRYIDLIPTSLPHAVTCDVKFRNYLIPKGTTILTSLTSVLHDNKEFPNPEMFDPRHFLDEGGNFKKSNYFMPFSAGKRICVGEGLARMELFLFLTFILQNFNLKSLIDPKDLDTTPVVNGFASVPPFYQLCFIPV

INS1 = experiment: beta cell apoptosis inhibitors, cytokine rescue, dose response, luminescence, retest (AID 449756); type: functional, cell-based; details: Rattus norvegicus;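 further: cell death triggered by IL-1 beta plus TNF-alpha plus IFN-gamma mixture; protective hits raise ATP signal compared with cytokine alone wells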
Vero [8] = experiment: cells; type: functional, cell-based; details: Chlorocebus sabaeus
[9] = cytotoxicity toward DRD oncogenic fibroblasts, dose response, cell-based, non-viral oncogenic, luminescence (AID 1934); type: functional; details: Homo sapiens
[10] = target: Serine/threonine-protein phosphatase (Candida dubliniensis (strain CD36 / CBS 7987 / NCPF 3949 / NRRLY-17841) (Yeast), UniProt B9W6M3); experiment: calcineurin pathway inhibitors in yeast reporter, dose response, S. cerevisiae, CDRE-lacZ, luminescence, secondary (AID 2388); type: functional, cell-based;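 further: yeast reporter cells carrying a calcineurin-responsive lacZ construct stimulated with calcium chloride; luminescent beta-galactosidase reporter signal in whole cells rather than isolated phosphatase activity; potency for inhibition where a drop in reporter signal means calcineurin blockade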
Chain of Serine/threonine-protein phosphatase (B9W6M3 whole entry): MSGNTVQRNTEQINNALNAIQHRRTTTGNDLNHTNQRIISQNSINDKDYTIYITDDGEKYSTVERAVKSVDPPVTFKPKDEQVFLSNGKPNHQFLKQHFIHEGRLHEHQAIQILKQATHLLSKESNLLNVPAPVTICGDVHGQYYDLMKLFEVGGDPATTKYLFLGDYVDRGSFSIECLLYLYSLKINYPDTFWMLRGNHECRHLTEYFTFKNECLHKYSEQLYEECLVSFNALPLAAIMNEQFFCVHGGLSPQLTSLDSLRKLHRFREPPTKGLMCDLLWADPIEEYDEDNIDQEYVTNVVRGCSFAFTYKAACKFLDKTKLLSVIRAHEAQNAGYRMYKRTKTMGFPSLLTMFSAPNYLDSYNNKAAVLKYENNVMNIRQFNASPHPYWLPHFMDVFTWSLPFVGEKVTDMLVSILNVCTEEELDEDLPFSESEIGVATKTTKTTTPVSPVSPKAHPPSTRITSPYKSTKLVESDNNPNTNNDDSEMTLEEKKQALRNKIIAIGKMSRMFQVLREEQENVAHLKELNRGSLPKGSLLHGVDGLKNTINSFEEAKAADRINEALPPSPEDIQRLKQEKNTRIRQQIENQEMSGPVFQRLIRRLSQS

Cytochrome P450 1A2 = target: T2, Cytochrome P450 1A2 (Homo sapiens, UniProt P05177);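 further: PubChem cytochrome P450 panel assay, CYP1A2 panel member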
T2 sequence (P05177 whole entry): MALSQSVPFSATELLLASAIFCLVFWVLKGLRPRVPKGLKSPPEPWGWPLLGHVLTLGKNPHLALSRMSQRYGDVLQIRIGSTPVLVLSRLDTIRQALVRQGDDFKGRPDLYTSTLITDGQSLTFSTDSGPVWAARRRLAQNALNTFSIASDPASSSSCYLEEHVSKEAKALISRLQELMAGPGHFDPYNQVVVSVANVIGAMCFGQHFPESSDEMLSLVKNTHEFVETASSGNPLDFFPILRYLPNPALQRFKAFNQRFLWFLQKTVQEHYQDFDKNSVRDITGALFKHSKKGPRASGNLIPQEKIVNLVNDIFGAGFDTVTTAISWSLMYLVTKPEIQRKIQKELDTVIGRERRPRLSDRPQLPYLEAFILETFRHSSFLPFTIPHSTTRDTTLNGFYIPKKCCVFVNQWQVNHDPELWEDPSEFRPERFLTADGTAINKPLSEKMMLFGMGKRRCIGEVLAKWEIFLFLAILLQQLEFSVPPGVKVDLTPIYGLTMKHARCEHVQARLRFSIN

Vero [11] = experiment: cells; type: functional; details: Chlorocebus sabaeus
[12] = C. albicans growth with fluconazole, confirmation, fluorescence, retest (AID 2467); type: functional, cell-based
BJ [13] = experiment: cells; type: functional, cell-based; details: Homo sapiens
Streptococcus = experiment: Group A Streptococcus viability loss, dose response, counter-screen for streptokinase expression inhibitor project, luminescence, BacTiterGlo (AID 1915); type: functional, organism-based;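 further: potency for reduction of bacterial viability or growth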
[14] = NIH-3T3 fibroblast cytotoxicity, dose response, cytotoxicity control, cell-based, fluorescence, Alamar Blue, secondary assay (AID 2327); type: functional;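 further: NIH-3T3 mouse fibroblasts cultured with fluconazole at 8 µg/mL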
[15] = target: Heat shock protein HSP 90-alpha (Homo sapiens, UniProt P07900); type: functional, organism-based
[16] = target: ATP-dependent molecular chaperone HSP82 (Candida albicans (strain WO-1) (Yeast), UniProt C4YTQ8); experiment: loss of DOC-induced GRE-beta-galactosidase reporter signal, dose response, Hsp90 inhibitor project, S. cerevisiae, luminescence (AID 2400); type: functional, cell-based;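 further: beta-galactosidase luminescence from glucocorticoid response element reporter as proxy for Hsp90 function; inhibitor potency where signal loss means Hsp90 inhibition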
Chain of ATP-dependent molecular chaperone HSP82 (C4YTQ8 whole entry): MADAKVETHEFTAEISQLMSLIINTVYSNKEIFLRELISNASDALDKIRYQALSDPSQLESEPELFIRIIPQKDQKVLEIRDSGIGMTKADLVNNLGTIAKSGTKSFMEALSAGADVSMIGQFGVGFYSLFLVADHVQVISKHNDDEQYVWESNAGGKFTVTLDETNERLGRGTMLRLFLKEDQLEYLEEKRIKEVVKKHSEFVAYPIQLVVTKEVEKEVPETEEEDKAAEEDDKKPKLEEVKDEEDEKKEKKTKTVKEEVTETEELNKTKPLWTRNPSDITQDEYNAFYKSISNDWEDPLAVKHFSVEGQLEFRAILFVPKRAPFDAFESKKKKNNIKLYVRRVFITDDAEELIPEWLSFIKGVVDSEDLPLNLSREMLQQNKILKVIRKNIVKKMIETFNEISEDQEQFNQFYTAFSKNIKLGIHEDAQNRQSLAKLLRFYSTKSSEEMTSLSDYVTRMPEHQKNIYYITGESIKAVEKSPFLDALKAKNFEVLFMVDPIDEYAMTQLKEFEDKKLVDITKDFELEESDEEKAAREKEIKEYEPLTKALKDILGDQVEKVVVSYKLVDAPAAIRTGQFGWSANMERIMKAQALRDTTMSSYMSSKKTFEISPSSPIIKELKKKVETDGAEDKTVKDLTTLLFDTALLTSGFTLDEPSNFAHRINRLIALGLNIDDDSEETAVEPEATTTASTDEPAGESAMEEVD

Cytochrome P450 2D6 = Cytochrome P450 2D6 (Homo sapiens, UniProt P10635);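 further: CYP2D6 member of a cytochrome P450 panel assay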
Chain of Cytochrome P450 2D6 (P10635 whole entry): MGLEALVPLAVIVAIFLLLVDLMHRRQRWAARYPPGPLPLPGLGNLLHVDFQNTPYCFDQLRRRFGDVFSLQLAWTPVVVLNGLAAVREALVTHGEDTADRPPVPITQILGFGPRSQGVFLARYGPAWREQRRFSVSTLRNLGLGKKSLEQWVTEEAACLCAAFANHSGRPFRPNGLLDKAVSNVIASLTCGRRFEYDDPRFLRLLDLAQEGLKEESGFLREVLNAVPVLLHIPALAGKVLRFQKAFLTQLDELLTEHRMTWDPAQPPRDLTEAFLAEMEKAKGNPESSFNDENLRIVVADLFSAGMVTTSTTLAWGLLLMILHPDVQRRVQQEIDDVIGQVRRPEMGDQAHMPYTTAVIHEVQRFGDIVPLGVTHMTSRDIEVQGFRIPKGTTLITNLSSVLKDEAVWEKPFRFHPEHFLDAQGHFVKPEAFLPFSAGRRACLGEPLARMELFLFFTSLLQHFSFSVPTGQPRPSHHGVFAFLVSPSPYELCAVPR

HEK293 [17] = experiment: cytotoxicity in HEK293T NF-kB-Luc cells, SAR follow-up, cytotoxicity control for NF-kB activator project, cell-based, resazurin fluorescence (AID 493251); type: functional; details: Homo sapiens
HEK293 [18] = experiment: SAR Analysis of small molecule inhibitors of T-cell specific antigen receptor-induced NF-kB activation in a HEK-293T cell line using a luminescence assay - Set 2. [Related pubchem assays (depositor defined):AID435003, AID435012, AID489026]; type: functional, cell-based; details: Homo sapiens
Jurkat = experiment: SAR Analysis of small molecule inhibitors of T-cell specific antigen receptor-induced NF-kB activation in a Jurkat cell line using a luminescence assay - Set 2. [Related pubchem assays (depositor defined):AID435003, AID435012, AID465]; type: functional, cell-based; details: Homo sapiens
[19] = target: T3, Beta-2 adrenergic receptor (Homo sapiens, UniProt P07550); experiment: beta2AR agonists driving receptor internalization, dose response, cell-based, FAP fluorogen, flow cytometry, cherry pick 1 (AID 588763); type: functional
T3 sequence (P07550 whole entry): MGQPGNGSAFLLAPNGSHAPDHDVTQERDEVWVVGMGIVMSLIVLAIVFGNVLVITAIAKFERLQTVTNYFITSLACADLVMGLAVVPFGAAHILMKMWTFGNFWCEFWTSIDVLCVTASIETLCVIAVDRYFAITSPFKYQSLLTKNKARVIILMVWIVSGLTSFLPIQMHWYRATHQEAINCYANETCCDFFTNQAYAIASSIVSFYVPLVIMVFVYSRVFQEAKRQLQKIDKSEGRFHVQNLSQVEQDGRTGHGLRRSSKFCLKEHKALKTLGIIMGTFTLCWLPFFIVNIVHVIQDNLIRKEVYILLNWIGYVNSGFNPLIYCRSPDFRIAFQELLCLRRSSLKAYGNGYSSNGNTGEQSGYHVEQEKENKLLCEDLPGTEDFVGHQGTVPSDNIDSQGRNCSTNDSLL

[20] = target: T3, Beta-2 adrenergic receptor; experiment: Dose response for HTS for Beta-2AR agonists via FAP method from Powderset3.; type: functional

Chain of Hexokinase-1 (P19367 whole entry, the tested form may be a part): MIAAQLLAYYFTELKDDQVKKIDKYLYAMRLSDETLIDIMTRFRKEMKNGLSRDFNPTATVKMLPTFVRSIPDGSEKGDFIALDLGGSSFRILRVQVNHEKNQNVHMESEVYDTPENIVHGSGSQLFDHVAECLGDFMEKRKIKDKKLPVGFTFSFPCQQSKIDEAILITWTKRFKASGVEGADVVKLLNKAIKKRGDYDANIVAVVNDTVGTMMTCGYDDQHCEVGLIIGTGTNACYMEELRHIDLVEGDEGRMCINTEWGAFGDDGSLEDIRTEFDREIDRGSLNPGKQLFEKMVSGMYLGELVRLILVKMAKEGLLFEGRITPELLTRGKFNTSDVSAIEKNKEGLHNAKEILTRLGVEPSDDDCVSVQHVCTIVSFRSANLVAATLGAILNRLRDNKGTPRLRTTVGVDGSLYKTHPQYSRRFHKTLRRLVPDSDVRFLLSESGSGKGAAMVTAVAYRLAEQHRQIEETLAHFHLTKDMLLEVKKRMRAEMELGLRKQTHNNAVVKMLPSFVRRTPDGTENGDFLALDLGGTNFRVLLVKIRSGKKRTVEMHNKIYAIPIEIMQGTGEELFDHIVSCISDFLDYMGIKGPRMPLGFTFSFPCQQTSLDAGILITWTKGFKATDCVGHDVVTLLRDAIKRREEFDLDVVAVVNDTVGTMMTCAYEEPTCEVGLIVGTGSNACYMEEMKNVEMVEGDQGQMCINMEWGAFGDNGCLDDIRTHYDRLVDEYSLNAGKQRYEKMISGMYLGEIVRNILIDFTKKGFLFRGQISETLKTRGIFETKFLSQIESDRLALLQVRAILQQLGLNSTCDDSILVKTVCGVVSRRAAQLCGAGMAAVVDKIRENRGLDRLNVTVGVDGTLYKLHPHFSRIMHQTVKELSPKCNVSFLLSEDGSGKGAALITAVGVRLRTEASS

With `O=c1c2ccccc2nc(/C=C/c2ccncc2)n1-c1ccccc1` the IC50 (Hexokinase-1) was > 80 µM (inactive) and the IC50 (Hexokinase HKDC1) was > 80 µM (inactive).

With `Oc1c(CN2CCN(c3ccccc3)CC2)cc(Br)c2cccnc12` the EC50 [1] was 1.47 µM (active), the AC50 [2] was 1.92 µM (active) and the EC50 (cells [3]) was > 350 µM (not active). The EC50 (BJ [4]) was 8.16 µM (inconclusive), the EC50 (cells [5]) was 62.6 µM (active) and the EC50 (BJ [6]) was 5.2 µM (active). The AC50 [7] was 1.84 µM (active), the AC50 (Cytochrome P450 2C19) was 3.98 µM (inconclusive) and the AC50 (INS1) was 2.42 µM (active). For the same compound, the IC50 (Vero [8]) was > 12.5 µM (active), the EC50 [9] was 14 µM (active) and the EC50 [10] was > 180 µM (inactive). For the same compound, the AC50 (Cytochrome P450 1A2) was 1.26 µM (inconclusive), the CC50 (Vero [11]) was 3.51 µM (active) and the EC50 [12] was 0.656 µM (active). For the same compound, the EC50 (BJ [13]) was 12.7 µM (inconclusive), the EC50 (Streptococcus) was 2.95 µM (active) and the EC50 [14] was > 160 µM (inconclusive). For the same compound, the AC50 [15] was 4.59 µM (active), the EC50 [16] was 21.3 µM (active) and the AC50 (Cytochrome P450 2D6) was 3.98 µM (inconclusive).

For `COc1ccc(C(NC(=O)CCc2ccccc2)c2ccc3cccnc3c2O)cc1` (stereo not drawn), the IC50 (HEK293 [17]) was 22.5 µM (inactive), the IC50 (HEK293 [18]) was 2.3 µM (active) and the IC50 (Jurkat) was 2.52 µM (active).

For `CC(Oc1ccc(Cl)cc1Cl)c1nc(-c2ccc(NC(=O)c3ccccn3)cc2)no1` (stereo not drawn), the EC50 [19] was 0.973 µM (active) and the EC50 [20] was 0.0883 µM (active).
